{"source": "EPA's ToxValDB 9.5 (doi:10.2903/j.efsa.2017.4874)", "key": {"Aphidius rhopalosiphi": {"test_system": "Aphidius rhopalosiphi", "assay": "LR50; higher = less toxic", "conditions": "not reported; mortality"}, "Oncorhynchus mykiss": {"test_system": "Oncorhynchus mykiss", "conditions": "acute; duration: 96 hours; mortality"}, "Danio rerio": {"test_system": "Danio rerio", "conditions": "subchronic; duration: 35 days; reproduction"}, "Tagia sp.": {"test_system": "Tagia sp.", "conditions": "chronic/long-term; growth"}, "Oryctolagus sp.": {"test_system": "Oryctolagus sp.", "conditions": "developmental; development"}, "Mus musculus": {"test_system": "Mus musculus", "conditions": "chronic"}, "Rattus norvegicus": {"test_system": "Rattus norvegicus", "conditions": "oral"}, "Apis mellifera": {"test_system": "Apis mellifera", "conditions": "acute, mortality"}, "Daphnia magna": {"test_system": "Daphnia magna", "conditions": "chronic/long-term; duration: 21 days; reproduction"}, "Colinus virginianus": {"test_system": "Colinus virginianus", "conditions": "for LD50: acute, oral, mortality"}, "Anas platyrhynchos": {"test_system": "Anas platyrhynchos", "conditions": "short-term; oral; feed; mortality"}, "Folsomia candida": {"test_system": "Folsomia candida", "conditions": "chronic/long-term; mortality"}}, "data": [{"smiles": "O=C(Nc1ccccc1)Nc1ccnc(Cl)c1", "note": "[Forchlorfenuron]", "values": [{"measurement": "LR50", "setting": "Aphidius rhopalosiphi", "value": "> 10", "unit": "g/ha"}, {"measurement": "LC50", "setting": "Oncorhynchus mykiss", "value": 1.93, "unit": "mg/L"}, {"measurement": "NOEC", "setting": "Danio rerio", "value": 1.01, "unit": "mg/L"}, {"measurement": "NOEC", "setting": "Tagia sp.", "value": 0.3, "unit": "mg/kg"}, {"measurement": "NOAEL", "setting": "Oryctolagus sp.", "value": 50, "unit": "mg/kg-day"}, {"measurement": "NOAEL", "setting": "Mus musculus; duration: 24 months, histopathology: neoplastic", "value": 5, "unit": "mg/kg-day"}, {"measurement": "NOAEL", "setting": "Mus musculus; histopathology: nonneoplastic", "value": 4.9, "unit": "mg/kg-day"}, {"measurement": "LD50", "setting": "Rattus norvegicus; acute, mortality", "value": 4920, "unit": "mg/kg-day"}, {"measurement": "NOAEL", "setting": "Rattus norvegicus; reproduction developmental, diet, body weight", "value": 11, "unit": "mg/kg-day"}, {"measurement": "NOAEL", "setting": "Rattus norvegicus; subchronic, duration: 90 days, organ weight", "value": 16.2, "unit": "mg/kg-day"}, {"measurement": "LD50", "setting": "Apis mellifera; dermal", "value": "> 30", "unit": "µg/piece"}, {"measurement": "LD50", "setting": "Apis mellifera; oral, unspecified", "value": "> 34.1", "unit": "µg/piece"}, {"measurement": "NOEC", "setting": "Daphnia magna", "value": 1.96, "unit": "mg/L"}, {"measurement": "LD50", "setting": "Colinus virginianus; diet", "value": "> 3120", "unit": "mg/kg-day"}, {"measurement": "LD50", "setting": "Colinus virginianus", "value": "> 2250", "unit": "mg/kg-day"}, {"measurement": "NOEC", "setting": "Colinus virginianus; reproduction developmental", "value": 88.4, "unit": "mg/kg-day"}, {"measurement": "LD50", "setting": "Anas platyrhynchos", "value": "> 3120", "unit": "mg/kg-day"}, {"measurement": "NOEC", "setting": "Folsomia candida", "value": 3.72, "unit": "mg/kg"}]}]}
